What was measured:
Rattus norvegicus [1] = experiment: Antioxidant activity in Rattus norvegicus Wistar (rat) assessed as malondialdehyde content in gastric mucosa at 210 mg/kg, po after 17 hr by UV spectrophotometric analysis (reference value: 3.23 +/- 0.05 nmol); assay type: functional
Rattus norvegicus [2] = experiment: Anti-inflammatory activity in Rattus norvegicus Wistar (rat) assessed as inhibition of carrageenan-induced paw edema at 70 mg/kg, po administered 1 hr prior to carrageenan challenge measured after 3 hr by plethysmometric analysis relative to control; assay type: functional
Rattus norvegicus [3] = experiment: Ulcerogenic activity in Rattus norvegicus Wistar (rat) stomach assessed as severity index at 210 mg/kg, po after 17 hr relative to control; assay type: toxicity, organism-based; set-up: dose 210 mg/kg, route oral; details: in vivo
Rattus norvegicus [4] = experiment: Anti-inflammatory activity in Rattus norvegicus Wistar (rat) assessed as inhibition of carrageenan-induced paw edema at 70 mg/kg, po administered 1 hr prior to carrageenan challenge measured after 4 hr by plethysmometric analysis relative to control; assay type: functional
Rattus norvegicus [5] = experiment: Antioxidant activity in Rattus norvegicus Wistar (rat) assessed as malondialdehyde content in gastric mucosa at 105 mg/kg, po after 17 hr by UV spectrophotometric analysis (reference value: 3.23 +/- 0.05 nmol); assay type: functional
Rattus norvegicus [6] = experiment: Ulcerogenic activity in Rattus norvegicus Wistar (rat) stomach assessed as severity index at 105 mg/kg, po after 17 hr relative to control; assay type: toxicity, organism-based; set-up: dose 105 mg/kg, route oral; details: in vivo
Rattus norvegicus [7] = experiment: Anti-inflammatory activity in Rattus norvegicus Wistar (rat) assessed as inhibition of carrageenan-induced paw edema at 35 mg/kg, po administered 1 hr prior to carrageenan challenge measured after 3 hr by plethysmometric analysis relative to control; assay type: functional
Rattus norvegicus [8] = experiment: Anti-inflammatory activity in Rattus norvegicus Wistar (rat) assessed as inhibition of carrageenan-induced paw edema at 35 mg/kg, po administered 1 hr prior to carrageenan challenge measured after 4 hr by plethysmometric analysis relative to control; assay type: functional

SMILES | Activity (Rattus norvegicus [1]) [nmol] | inhibition in vivo at 70 mg/kg (Rattus norvegicus [2]) [%] | UI (Rattus norvegicus [3]) | inhibition in vivo at 70 mg/kg (Rattus norvegicus [4]) [%] | Activity (Rattus norvegicus [5]) [nmol] | UI (Rattus norvegicus [6]) | inhibition in vivo at 35 mg/kg (Rattus norvegicus [7]) [%] | inhibition in vivo at 35 mg/kg (Rattus norvegicus [8]) [%]
COc1ccc(C2=NOC(c3c[nH]c4ccccc34)C2CN2CCOCC2)cc1 (stereo not given) | 4.16 | 44.1 | 0.25 | 55.5 | – | – | – | –
Cc1ccc(C2=NOC(c3c[nH]c4ccccc34)C2CN2CCOCC2)cc1 (stereo not given) | – | 38.2 | – | 48.5 | – | – | – | –
Clc1ccc(C2=NOC(c3c[nH]c4ccccc34)C2CN2CCOCC2)cc1 (stereo not given) | 4.39 | 44.1 | 0.75 | 50.5 | – | – | – | –
c1ccc(C2=NOC(c3c[nH]c4ccccc34)C2CN2CCOCC2)cc1 (stereo not given) | – | 35.3 | – | 45.5 | – | – | – | –
COc1ccc(C2=NOC(c3c[nH]c4ccccc34)C2CN2CCCCC2)cc1 (stereo not given) | 4.51 | 45.1 | 0.75 | 50.5 | – | – | – | –
Cc1ccc(C2=NOC(c3c[nH]c4ccccc34)C2CN2CCCCC2)cc1 (stereo not given) | 4.28 | 41.2 | 0.5 | 51.5 | – | – | – | –
Clc1ccc(C2=NOC(c3c[nH]c4ccccc34)C2CN2CCCCC2)cc1 (stereo not given) | 4.38 | 45.1 | 0.583 | 53.5 | – | – | – | –
c1ccc(C2=NOC(c3c[nH]c4ccccc34)C2CN2CCCCC2)cc1 (stereo not given) | – | 34.3 | – | 48.5 | – | – | – | –
COc1ccc2c(c1)c(CC(=O)O)c(C)n2C(=O)c1ccc(Cl)cc1 [INDOMETHACIN] | – | – | – | – | 9.29 | 2.33 | 65.2 | 76.5
